In data set [1] the test system is recombinant NL4-3 virus (nef section replaced with Renilla luciferase gene) in MT-2 cells. In words: HIV cell culture assay (antiviral activity, luciferase readout). Format: cell-based. The note with it: Renilla, NL43, MT-2 cells infected for 4-5 days with recombinant NL4-3 Renilla luciferase virus, serial dilutions of compound. The gist of the method:
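Test compound in serial dilution was present while MT-2 cells were infected for 4–5 days with recombinant NL4-3 virus made in 293T cells. Antiviral activity was quantified as Renilla luciferase activity, read with a live-cell substrate. EC50 came from the median-effect equation.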

A short description of data set [2]: Compound cytotoxicity, XTT-based colorimetric assay. The note with it: human, uninfected MT2 cells, day 4, XTT. In kind it is cell-based. An outline of the steps:
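Run under the antiviral-assay protocol but without virus. Viability was read on day 4 and CC50 values were derived from the readout.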
On the technique in general: Formazan colour is commonly taken as a measure of viable cells.

Bounds are passed on as bounds.

Consider `O=C(Cn1ccc(C2CC2)n1)N[C@@H](Cc1cc(F)cc(F)c1)c1nc2cc(-c3ccccc3F)ccc2c(=O)n1-c1ccc(Cl)c2c(NS(=O)(=O)C3CC3)nn(CC(F)F)c12` (atropisomer, axis not shown) [Example 134, (S)-N-(1-(3-(4-chloro-3-(cyclopropanesulfonamido)-1-(2,2-difluoroethyl)-1H-indazol-7-yl)-7-(2-fluorophenyl)-4-oxo-3,4-dihydroquinazolin-2-yl)-2-(3,5-difluorophenyl)ethyl)-2-(3-cyclopropyl-1H-pyrazol-1-yl)acetamide], for which, in data set [1], the EC50 (in general, the concentration giving half of the maximal effect) is 10 nM. Moreover, in data set [2], the CC50 (commonly the concentration giving 50% cytotoxicity) at 4 day is > 1000 nM.

`Cc1ncc(-c2ccc3c(=O)n(-c4ccc(Cl)c5c(NS(C)(=O)=O)nn(CC(F)(F)F)c45)c([C@H](Cc4cc(F)cc(F)c4)NC(=O)Cn4nc(C(F)F)c5c4C(F)(F)[C@@H]4C[C@H]54)nc3c2)cn1` [Example 166, N-((S)-1-(3-(4-chloro-3-(methylsulfonamido)-1-(2,2,2-trifluoroethyl)-1H-indazol-7-yl)-7-(2-methylpyrimidin-5-yl)-4-oxo-3,4-dihydroquinazolin-2-yl)-2-(3,5-difluorophenyl)ethyl)-2-((3bS,4aR)-3-(difluoromethyl)-5,5-difluoro-3b,4,4a,5-tetrahydro-1H-cyclopropa[3,4]cyclopenta[1,2-c]pyrazol-1-yl)acetamide]: in data set [1], the EC50 stood at 0.037 nM. In addition, the CC50 at 4 day in data set [2] is > 500 nM.

On to `CCCS(=O)(=O)c1cccc(-c2ccc3c(=O)n(-c4ccc(Cl)c5c(NS(C)(=O)=O)nn(C)c45)c([C@H](Cc4cc(F)cc(F)c4)NC(=O)Cn4nc(C(F)F)c5c4C(F)(F)[C@@H]4C[C@H]54)nc3c2)c1` (atropisomer, axis not shown; (aR)) [Example 122, N-((S)-1-(3-(4-chloro-1-methyl-3-(methylsulfonamido)-1H-indazol-7-yl)-4-oxo-7-(3-(propylsulfonyl)phenyl)-3,4-dihydroquinazolin-2-yl)-2-(3,5-difluorophenyl)ethyl)-2-((3bS,4aR)-3-(difluoromethyl)-5,5-difluoro-3b,4,4a,5-tetrahydro-1H-cyclopropa[3,4]cyclopenta[1,2-c]pyrazol-1-yl)acetamide], for which the EC50 in data set [1] came to 0.17 nM. Further, the CC50 at 4 day in data set [2] is > 500 nM.

For `Cn1nc(NS(C)(=O)=O)c2c(Cl)ccc(-n3c([C@H](Cc4cc(F)cc(F)c4)NC(=O)Cn4nc(C(F)F)c5c4C(F)(F)[C@@H]4C[C@H]54)nc4cc(-c5cc[nH]n5)ccc4c3=O)c21` (atropisomer, axis not shown; (aR)) [Example 78, N-((S)-1-(3-(4-chloro-1-methyl-3-(methylsulfonamido)-1H-indazol-7-yl)-4-oxo-7-(1H-pyrazol-3-yl)-3,4-dihydroquinazolin-2-yl)-2-(3,5-difluorophenyl)ethyl)-2-((3bS,4aR)-3-(difluoromethyl)-5,5-difluoro-3b,4,4a,5-tetrahydro-1H-cyclopropa[3,4]cyclopenta[1,2-c]pyrazol-1-yl)acetamide], the EC50 in data set [1] stood at 0.12 nM. Besides, in data set [2], the CC50 at 4 day is > 1000 nM.

Turning to `O=C(Cn1ccc(C2CC2)n1)N[C@@H](Cc1cc(F)cc(F)c1)c1nc2cc(-c3c(F)cccc3F)ccc2c(=O)n1-c1ccc(S(=O)(=O)N2CCOCC2)cc1` [Example 37, (S)-2-(3-cyclopropyl-1H-pyrazol-1-yl)-N-(2-(3,5-difluorophenyl)-1-(7-(2,6-difluorophenyl)-3-(4-(morpholinosulfonyl)phenyl)-4-oxo-3,4-dihydroquinazolin-2-yl)ethyl)acetamide], the concentration for a half-maximal effect (EC50) in data set [1] was 8.8 nM. Moreover, in data set [2], the CC50 at 4 day was > 1000 nM.

With `O=C(Cn1nc(C(F)F)cc1C(F)F)N[C@@H](Cc1cc(F)cc(F)c1)c1nc2cc(-c3ncccn3)ccc2c(=O)n1-c1ccc(Cl)c2c(NS(=O)(=O)C3CC3)nn(CC(F)F)c12` [Example 189, (S)-2-(3,5-bis(difluoromethyl)-1H-pyrazol-1-yl)-N-(1-(3-(4-chloro-3-(cyclopropanesulfonamido)-1-(2,2-difluoroethyl)-1H-indazol-7-yl)-4-oxo-7-(pyrimidin-2-yl)-3,4-dihydroquinazolin-2-yl)-2-(3,5-difluorophenyl)ethyl)acetamide], the EC50 in data set [1] came out at 1.3 nM. In addition, in data set [2], the CC50 at 4 day was > 500 nM.

As for `Cn1nc(NS(C)(=O)=O)c2c(Cl)ccc(-n3c([C@H](Cc4cc(F)cc(F)c4)NC(=O)Cn4nc(C(F)F)c5c4C(F)(F)[C@@H]4C[C@H]54)nc4cc(-c5ncccn5)ccc4c3=O)c21` (atropisomer, axis not shown; (aR)) [Example 40, N-((S)-1-(3-(4-chloro-1-methyl-3-(methylsulfonamido)-1H-indazol-7-yl)-4-oxo-7-(pyrimidin-2-yl)-3,4-dihydroquinazolin-2-yl)-2-(3,5-difluorophenyl)ethyl)-2-((3bS,4aR)-3-(difluoromethyl)-5,5-difluoro-3b,4,4a,5-tetrahydro-1H-cyclopropa[3,4]cyclopenta[1,2-c]pyrazol-1-yl)acetamide], in data set [1], the EC50 was 0.025 nM. The CC50 at 4 day in data set [2] is > 1000 nM.

Consider `CC(C)S(=O)(=O)c1ccccc1-c1ccc2c(=O)n(-c3ccc(Cl)c4c(NS(C)(=O)=O)nn(CC(F)F)c34)c([C@H](Cc3cc(F)cc(F)c3)NC(=O)Cn3nc(C(F)F)c4c3C(F)(F)[C@@H]3C[C@H]43)nc2c1` [Example 178, N-((S)-1-(3-(4-chloro-1-(2,2-difluoroethyl)-3-(methylsulfonamido)-1H-indazol-7-yl)-7-(2-(isopropylsulfonyl)phenyl)-4-oxo-3,4-dihydroquinazolin-2-yl)-2-(3,5-difluorophenyl)ethyl)-2-((3bS,4aR)-3-(difluoromethyl)-5,5-difluoro-3b,4,4a,5-tetrahydro-1H-cyclopropa[3,4]cyclopenta[1,2-c]pyrazol-1-yl)acetamide], for which the EC50 in data set [1] came to 0.065 nM. For the same molecule, the CC50 at 4 day in data set [2] was > 500 nM.

Regarding `O=C(Cn1nc(C(F)F)c2c1C(F)(F)[C@@H]1C[C@H]21)N[C@@H](Cc1cc(F)cc(F)c1)c1nc2cc(-c3ncccn3)ccc2c(=O)n1-c1ccc(Cl)c2c(NS(=O)(=O)C3CC3)nn(CC(F)F)c12` (atropisomer, axis not shown; (aR)) [Example 127, N-((S)-1-(3-(4-chloro-3-(cyclopropanesulfonamido)-1-(2,2-difluoroethyl)-1H-indazol-7-yl)-4-oxo-7-(pyrimidin-2-yl)-3,4-dihydroquinazolin-2-yl)-2-(3,5-difluorophenyl)ethyl)-2-((3bS,4aR)-3-(difluoromethyl)-5,5-difluoro-3b,4,4a,5-tetrahydro-1H-cyclopropa[3,4]cyclopenta[1,2-c]pyrazol-1-yl)acetamide], the EC50 in data set [1] stood at 0.059 nM. Further, the CC50 at 4 day in data set [2] is > 500 nM.

For `Cn1nc(NS(C)(=O)=O)c2c(Cl)ccc(-n3c([C@H](Cc4cc(F)cc(F)c4)NC(=O)Cn4nc(C(F)F)c5c4C(F)(F)[C@@H]4C[C@H]54)nc4cc(-c5cccc(F)c5CO)ccc4c3=O)c21` (atropisomer, axis not shown; (aR)) [Example 44, N-((S)-1-(3-(4-chloro-1-methyl-3-(methylsulfonamido)-1H-indazol-7-yl)-7-(3-fluoro-2-(hydroxymethyl)phenyl)-4-oxo-3,4-dihydroquinazolin-2-yl)-2-(3,5-difluorophenyl)ethyl)-2-((3bS,4aR)-3-(difluoromethyl)-5,5-difluoro-3b,4,4a,5-tetrahydro-1H-cyclopropa[3,4]cyclopenta[1,2-c]pyrazol-1-yl)acetamide], in data set [1], the EC50 was 0.12 nM. For the same molecule, in data set [2], the CC50 at 4 day is > 1000 nM.

These data come from patent US11505543B2, “4-oxo-3,4-dihydroquinazoline compounds as inhibitors of human immunodeficiency virus replication” (VIIV HEALTHCARE UK (NO.5) LIMITED, priority 2018, dated 2022).
